ChEMBL document CHEMBL4406812, “Synthesis of quinones with highlighted biological applications: A critical update on the strategies towards bioactive compounds with emphasis on lapachones” (Eur J Med Chem, 2019)
Values belong to the molecule of their own block, whether it stands above or below them.

Experiments:
HL-60 [1] = assay: Anticancer activity against human HL60 cells; format: functional, cell-based
HCT-116 [2] = assay: Anticancer activity against human HCT116 cells; format: functional, cell-based
L929 = assay: Anticancer activity against mouse L929 cells; format: functional, cell-based
Trypanosoma cruzi [3] = assay: Trypanocidal activity against Trypanosoma cruzi Y strain bloodstream trypomastigotes isolated from infected Swiss mouse infected with monkey LLC-MK2 cells after 5 days by fluorescence spectrophotometric analysis; format: functional, organism-based; conditions: LLC-MK2, 120 h
[4] = Selectivity index, ratio of CC50 for monkey LLC-MK2 cells to IC50 for Trypanosoma cruzi Y strain bloodstream trypomastigotes; format: toxicity; conditions: read-out: Ratio IC50
L02 = assay: Cytotoxicity against human LO2 cells assessed as reduction in cell viability after 48 hrs by MTT assay; format: functional, cell-based; conditions: L02, 48 h
HepG2 = assay: Cytotoxicity against human HepG2 cells assessed as reduction in cell viability after 48 hrs by MTT assay; format: functional, cell-based; conditions: HepG2, 48 h
HCT-8 [5] = assay: Anticancer activity against human HCT8 cells; format: functional, cell-based
MDA-MB-435 [6] = assay: Anticancer activity against human MDA-MB-435 cells; format: functional, cell-based
SF-295 [7] = assay: Anticancer activity against human SF295 cells; format: functional, cell-based
PBMC = assay: Cytotoxicity against human PBMC; format: cell-based
Trypanosoma cruzi [8] = assay: Trypanocidal activity against Trypanosoma cruzi Y strain bloodstream trypomastigotes isolated from infected Swiss mouse after 24 hrs by Neubauer chamber method; format: functional, organism-based
MCF7 = assay: Anticancer activity against human MCF7 cells; format: functional, cell-based
MDA-MB-435 [9] = assay: Cytotoxicity against human MDA-MB-435 cells assessed as reduction in cell viability after 72 hrs by MTT assay; format: functional, cell-based; conditions: MDA-MB-435, 72 h
NCI-H358 = assay: Cytotoxicity against human NCI-H358 cells assessed as reduction in cell viability after 72 hrs by MTT assay; format: functional, cell-based; conditions: NCI-H358, 72 h
Hs-578T [10] = assay: Cytotoxicity against human Hs 578T cells assessed as reduction in cell viability after 72 hrs by MTT assay; format: functional, cell-based
SF-295 [11] = assay: Cytotoxicity against human SF295 cells assessed as reduction in cell viability after 72 hrs by MTT assay; format: functional, cell-based; conditions: SF-295, 72 h
HCT-8 [12] = assay: Cytotoxicity against human HCT8 cells assessed as reduction in cell viability after 72 hrs by MTT assay; format: functional, cell-based; conditions: HCT-8, 72 h
SW-620 = assay: Cytotoxicity against human SW620 cells assessed as reduction in cell viability after 72 hrs by MTT assay; format: functional, cell-based; conditions: SW-620, 72 h
Hs-578T [13] = assay: Cytotoxicity against human Hs578T cells assessed as reduction in cell viability after 72 hrs by MTT assay; format: functional, cell-based
Trypanosoma cruzi [14] = assay: Anti-parasitic activity against trypomastigotes form of Trypanosoma cruzi after 24 hrs; format: functional, organism-based
LNCaP = assay: Anticancer activity against human LNCAP cells after 72 to 102 hrs by MTT assay; format: functional, cell-based
PC-3 = assay: Anticancer activity against human PC3 cells after 72 to 102 hrs by MTT assay; format: functional, cell-based
SF-295 [15] = assay: Anticancer activity against human SF295 cells by MTT assay; format: functional, cell-based
HCT-116 [16] = assay: Anticancer activity against human HCT116 cells by MTT assay; format: functional, cell-based
HL-60 [17] = assay: Anticancer activity against human HL60 cells by MTT assay; format: functional, cell-based
OVCAR-8 = assay: Anticancer activity against human OVCAR8 cells by MTT assay; format: functional, cell-based
Trypanosoma cruzi [18] = assay: Potency index, ratio of beta-lapachone IC50 to compound IC50 for Trypanosoma cruzi after 24 hrs; format: functional, organism-based
Trypanosoma cruzi [19] = assay: Anti-parasitic activity against amastigote form of Trypanosoma cruzi after 24 hrs; format: functional, organism-based
Trypanosoma cruzi [20] = assay: Anti-parasitic activity against Trypanosoma cruzi; format: functional, organism-based
HL-60 [21] = assay: Cytotoxicity against human HL60 cells assessed as reduction in cell viability after 22 hrs by MTS assay; format: functional, cell-based; conditions: HL-60, 22 h

Compound: CC1(C)OC2=C(C(=O)C(=O)c3ccccc32)[C@H](n2cc(C[Se]c3ccc(F)cc3)nn2)[C@H]1Br
- IC50 (HL-60 [1]): 590 nM
- IC50 (HCT-116 [2]): 370 nM
- IC50 (L929): 360 nM

Compound: CCCCCCCCC1CC2=C(O1)c1ccccc1C(=O)C2=O (stereo unspecified)
- IC50 (Trypanosoma cruzi [3]): 20700 nM
- selectivity ratio [4]: 106

Compound: O=C1C(=O)c2ccccc2C2=C1C1(C(=O)Nc3ccc(Cl)cc31)N1NN=NC1=N2 (stereo unspecified)
- IC50 (L02): 2900 to 36300 nM
- IC50 (HepG2): 2900 to 36300 nM

- IC50 (HL-60 [1]): 70 to 370 nM
- IC50 (HCT-8 [5]): 70 to 370 nM
- IC50 (MDA-MB-435 [6]): 70 to 370 nM
- IC50 (SF-295 [7]): 70 to 370 nM
Compound: CC1(C)CC(Nc2ccc(Cl)cc2)C2=C(O1)C(=O)c1ccccc1C2=O (stereo unspecified)
- IC50 (PBMC): 70 to 370 nM

Compound: CCOC(=O)/C=C/c1cccc2c1C(=O)C=CC2=O
- IC50 (Trypanosoma cruzi [8]): 63400 nM

Compound: COc1ccc2c(c1)NC(=O)C21C2=C(N=C3N=NNN31)c1ccccc1C(=O)C2=O (stereo unspecified)
- IC50 (L02): 2900 to 36300 nM
- IC50 (HepG2): 2900 to 36300 nM

Compound: O=C1C(=O)c2ccccc2C2=C1C1(C(=O)Nc3cc(Cl)ccc31)N1NN=NC1=N2 (stereo unspecified)
- IC50 (L02): 2900 to 36300 nM
- IC50 (HepG2): 2900 to 36300 nM

- IC50 (MCF7): 600 nM
Compound: CC(=O)OCC1C2=C(OC1(C)C)c1ccccc1C(=O)C2=O (stereo unspecified)

- IC50 (MCF7): 360 nM
Compound: COc1cccc2c1C(=O)c1c(O)c3c(c(O)c1C2=O)C[C@@](O)(C(=O)CO)C[C@@H]3O[C@H]1C[C@H](N)[C@H](O)[C@H](C)O1 [DOXORUBICIN]
- IC50 (MDA-MB-435 [9]): 30 to 880 nM
- IC50 (NCI-H358): 900 nM
- IC50 (Hs-578T [10]): 830 nM
- IC50 (SF-295 [11]): 30 to 880 nM
- IC50 (HCT-8 [12]): 30 nM
- IC50 (SW-620): 770 nM
- IC50 (Hs-578T [13]): 750 nM

- IC50 (Trypanosoma cruzi [14]): 14300 nM
Compound: O=C1C=CC(=O)c2c(SCc3ccccc3)cccc21

Compound: Cc1ccc2c(c1)C1(C(=O)N2)C2=C(N=C3N=NNN31)c1ccccc1C(=O)C2=O (stereo unspecified)
- IC50 (L02): 2900 to 36300 nM
- IC50 (HepG2): 2900 to 36300 nM

- IC50 (LNCaP): 30 nM
- IC50 (PC-3): 80 nM
Compound: O=C1c2ccccc2C(=O)c2oc(-c3cccc(Cl)c3)nc21

- IC50 (HCT-116 [16]): 510 nM
- IC50 (HL-60 [17]): 160 nM
- IC50 (OVCAR-8): 890 nM
Compound: CC1(C)O[C@H]2O[C@H](COC3C4=C(OC3(C)C)c3ccccc3C(=O)C4=O)[C@@H](OCc3ccccc3)[C@H]2O1 (stereo partly specified)
- IC50 (SF-295 [15]): 340 nM

- IC50 (MCF7): 460 nM
Compound: CC1(C)OC2=C(C(=O)C(=O)c3ccccc32)C1CO (stereo unspecified)

Compound: CC1(C)CCc2c(c3ccccc3c3nc4cc(Nc5ccccc5)/c(=N/c5ccccc5)cc-4n(-c4ccccc4)c23)O1
- Ratio IC50 (Trypanosoma cruzi [18]): 61.3

- IC50 (Trypanosoma cruzi [19]): 4900 nM
Compound: CC1(C)Oc2c(c3nc4c5cccnc5c5ncccc5c4nc3c3ccccc23)CC1I (stereo unspecified)

- IC50 (Trypanosoma cruzi [20]): 600 nM
Compound: Nc1c(I)ccc2c1C(=O)C=CC2=O

- IC50 (HL-60 [1]): 70 nM
Compound: COc1ccc(NC2CC(C)(C)OC3=C2C(=O)c2ccccc2C3=O)cc1 (stereo unspecified)

- IC50 (Trypanosoma cruzi [20]): 1400 nM
Compound: O=C1C(Br)=C(Br)C(=O)c2c(I)cccc21

- IC50 (Trypanosoma cruzi [14]): 7600 nM
Compound: COc1ccc(Sc2cccc3c2C(=O)C=CC3=O)cc1

Compound: Nc1nnn[nH]1
- IC50 (L02): 2900 to 36300 nM
- IC50 (HepG2): 2900 to 36300 nM

Compound: O=C1C(=O)c2ccccc2C2=C1C1(C(=O)Nc3ccc(OC(F)(F)F)cc31)N1NN=NC1=N2 (stereo unspecified)
- IC50 (L02): 2900 to 36300 nM
- IC50 (HepG2): 2900 to 36300 nM

Compound: O=C1C2=C(S[C@@H]3OC[C@@H](O)[C@H](O)[C@H]3O2)C(=O)c2ccccc21
- IC50 (HL-60 [21]): 1000 nM

Compound: CCCCCCCCCCC1CC2=C(O1)c1ccccc1C(=O)C2=O (stereo unspecified)
- IC50 (Trypanosoma cruzi [3]): 46800 nM
- selectivity ratio [4]: 36.3

Compound: O=C1C(=O)c2ccccc2C2=C1C1(C(=O)Nc3c(Cl)cccc31)N1NN=NC1=N2 (stereo unspecified)
- IC50 (L02): 2900 to 36300 nM
- IC50 (HepG2): 2900 to 36300 nM
